Data reported in ChEMBL document CHEMBL2216752, “Carnitine palmitoyltransferase (CPT) modulators: a medicinal chemistry perspective on 35 years of research” (J Med Chem, 2011).

Legend:
[1] = Inhibition of rat FAO
[2] = Inhibition of human FAO
[3] = system: Mus musculus; experiment: Induction of weight loss in DIO mouse at 15 mg/kg, ip administered single dose measured 20 hrs post dose (reference value: 2 %); assay type: functional; conditions: route intraperitoneal
[4] = system: Mus musculus; experiment: Increase in energy production in DIO mouse at 15 mg/kg, ip administered single dose; assay type: functional; conditions: route intraperitoneal
[5] = molecular target: Carnitine O-palmitoyltransferase 1, liver isoform (Rattus norvegicus) (UniProt P32198); experiment: Increase in CPT1 activity in rat hepatocytes using [3H]carnitine by radiometric assay; assay type: cell-based; conditions: Hepatocyte
Chain of Carnitine O-palmitoyltransferase 1, liver isoform (Rattus norvegicus) (P32198 whole entry, canonical isoform): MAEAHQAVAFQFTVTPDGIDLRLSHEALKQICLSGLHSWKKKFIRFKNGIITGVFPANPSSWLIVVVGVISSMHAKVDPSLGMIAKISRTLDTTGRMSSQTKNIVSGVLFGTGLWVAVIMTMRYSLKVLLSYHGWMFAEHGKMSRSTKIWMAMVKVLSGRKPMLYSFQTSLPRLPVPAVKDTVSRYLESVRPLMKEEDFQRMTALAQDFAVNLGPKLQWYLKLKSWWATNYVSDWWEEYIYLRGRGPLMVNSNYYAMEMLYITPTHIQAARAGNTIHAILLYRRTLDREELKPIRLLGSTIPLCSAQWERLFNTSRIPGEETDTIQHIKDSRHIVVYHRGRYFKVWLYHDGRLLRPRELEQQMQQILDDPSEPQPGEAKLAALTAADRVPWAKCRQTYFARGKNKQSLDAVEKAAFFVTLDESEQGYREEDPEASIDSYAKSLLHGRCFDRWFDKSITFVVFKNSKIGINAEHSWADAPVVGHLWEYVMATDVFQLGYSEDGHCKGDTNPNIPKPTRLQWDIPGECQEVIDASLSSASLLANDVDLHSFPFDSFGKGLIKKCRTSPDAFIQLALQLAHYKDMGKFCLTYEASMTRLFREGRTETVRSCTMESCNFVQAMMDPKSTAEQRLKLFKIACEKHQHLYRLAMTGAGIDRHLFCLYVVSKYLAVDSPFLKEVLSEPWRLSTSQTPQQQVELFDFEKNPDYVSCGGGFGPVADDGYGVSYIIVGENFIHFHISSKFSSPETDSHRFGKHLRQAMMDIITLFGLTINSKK

[6] = system: Hepatocyte; experiment: Increase in palmitate oxidation rat hepatocytes a at 80 uM; assay type: functional
[7] = molecular target: T1, Carnitine O-palmitoyltransferase 1, liver isoform (Homo sapiens) (UniProt P50416); experiment: Increase in liver CPT1 activity expressed in yeast mitochondrial extracts
T1 sequence (whole entry): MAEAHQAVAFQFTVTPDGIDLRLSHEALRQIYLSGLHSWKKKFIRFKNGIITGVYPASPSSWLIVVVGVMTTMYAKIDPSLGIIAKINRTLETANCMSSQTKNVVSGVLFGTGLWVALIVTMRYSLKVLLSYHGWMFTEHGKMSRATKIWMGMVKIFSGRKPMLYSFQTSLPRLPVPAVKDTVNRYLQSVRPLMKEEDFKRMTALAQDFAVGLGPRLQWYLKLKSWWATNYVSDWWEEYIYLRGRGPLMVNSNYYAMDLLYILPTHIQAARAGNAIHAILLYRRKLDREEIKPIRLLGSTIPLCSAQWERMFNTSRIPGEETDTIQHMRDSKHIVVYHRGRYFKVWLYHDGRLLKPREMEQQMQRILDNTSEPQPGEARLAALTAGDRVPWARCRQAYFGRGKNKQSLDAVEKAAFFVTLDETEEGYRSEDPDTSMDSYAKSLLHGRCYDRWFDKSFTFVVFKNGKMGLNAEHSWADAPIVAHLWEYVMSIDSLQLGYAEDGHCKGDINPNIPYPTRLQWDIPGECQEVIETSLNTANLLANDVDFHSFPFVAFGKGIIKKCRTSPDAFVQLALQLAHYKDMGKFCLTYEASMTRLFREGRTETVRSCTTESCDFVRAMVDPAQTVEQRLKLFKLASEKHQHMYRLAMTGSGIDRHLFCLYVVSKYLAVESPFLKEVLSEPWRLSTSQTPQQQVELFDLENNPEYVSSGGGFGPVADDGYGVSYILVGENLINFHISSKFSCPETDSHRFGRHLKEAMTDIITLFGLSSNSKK

[8] = molecular target: Carnitine O-palmitoyltransferase 1, muscle isoform (Homo sapiens) (UniProt Q92523); experiment: Increase in muscle CPT1 activity expressed in yeast mitochondrial extracts; conditions: Muscle tissue
Chain of Carnitine O-palmitoyltransferase 1, muscle isoform (Homo sapiens) (Q92523 whole entry, looked up, canonical isoform): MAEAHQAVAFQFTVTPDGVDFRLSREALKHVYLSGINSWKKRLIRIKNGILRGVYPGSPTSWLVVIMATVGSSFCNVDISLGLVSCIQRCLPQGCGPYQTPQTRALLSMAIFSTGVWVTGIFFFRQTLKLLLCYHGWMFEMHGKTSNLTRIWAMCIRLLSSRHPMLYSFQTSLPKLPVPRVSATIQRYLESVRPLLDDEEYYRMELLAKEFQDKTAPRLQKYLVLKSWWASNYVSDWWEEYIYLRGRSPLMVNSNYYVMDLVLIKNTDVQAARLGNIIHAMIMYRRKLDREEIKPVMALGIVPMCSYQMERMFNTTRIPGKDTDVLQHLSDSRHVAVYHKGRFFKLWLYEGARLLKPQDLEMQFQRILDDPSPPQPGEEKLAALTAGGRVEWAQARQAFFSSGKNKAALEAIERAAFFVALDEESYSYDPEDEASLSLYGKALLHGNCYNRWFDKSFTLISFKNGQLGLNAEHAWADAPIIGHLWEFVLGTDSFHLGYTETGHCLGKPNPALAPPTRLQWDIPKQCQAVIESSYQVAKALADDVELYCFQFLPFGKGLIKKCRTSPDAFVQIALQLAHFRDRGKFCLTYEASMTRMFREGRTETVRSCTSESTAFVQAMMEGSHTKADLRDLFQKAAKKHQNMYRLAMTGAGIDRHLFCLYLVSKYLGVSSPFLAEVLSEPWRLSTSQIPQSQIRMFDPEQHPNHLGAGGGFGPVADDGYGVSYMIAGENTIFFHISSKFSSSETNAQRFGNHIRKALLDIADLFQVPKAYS

[9] = species: Sus scrofa; experiment: Increase in glucose metabolic clearance rate in pig using [U14C,3-3H]glucose; assay type: functional
[10] = molecular target: T1, Carnitine O-palmitoyltransferase 1, liver isoform (Homo sapiens); experiment: Increase in CPT1A activity in hepatocytes at 60 uM; assay type: cell-based; conditions: Hepatocyte
[11] = system: Hepatocyte; experiment: Stimulation of FAO in hepatocytes at 28 uM; assay type: cell-based
[12] = molecular target: T1, Carnitine O-palmitoyltransferase 1, liver isoform (Homo sapiens); experiment: Increase in CPT1 activity in human MCF7 cells assessed as increase in radiolabeled palmitoylcarnitine relative to untreated control; assay type: cell-based
[13] = molecular target: T2, Carnitine O-palmitoyltransferase 1, liver isoform (Homo sapiens, UniProt P50416); experiment: Increase in CPT1 activity in human MCF7 cells assessed as increase in radiolabeled palmitoylcarnitine; assay type: cell-based
T2 sequence (P50416 whole entry): T1 sequence (whole entry)

[14] = molecular target: T1, Carnitine O-palmitoyltransferase 1, liver isoform (Homo sapiens); experiment: Increase in CPT1 activity in human MCF7 cells assessed as increase in radiolabeled palmitoylcarnitine at 31 uM; assay type: cell-based
[15] = system: Rattus norvegicus; experiment: Reduction in KB level in Sprague-Dawley rat at 0.44 mg/kg, po; assay type: functional; parameters: scale not given: the % may be the effect or the level left
[16] = system: Rattus norvegicus; experiment: Reduction in glucose level in Sprague-Dawley rat at 88 mg/kg, po; assay type: functional; parameters: scale not given: the % may be the effect or the level left
[17] = Inhibition of carnitine palmitoyltransferase in rat heart mitochondria assessed as conversion of [14C]palmitic acid to [14C]palmitoylcarnitine by radiometric assay
[18] = Inhibition of carnitine palmitoyltransferase in rat liver mitochondria assessed as conversion of [14C]palmitic acid to [14C]palmitoylcarnitine by radiometric assay
[19] = Inhibition of carnitine palmitoyltransferase in 18 hr fasted rat hepatocytes; assay type: cell-based; conditions: hepatocyte
[20] = Inhibition of carnitine palmitoyltransferase in 18 hr fasted rat liver homogenates; assay type: tissue-based
[21] = Competitive inhibition of carnitine palmitoyltransferase using palmitoyl-CoA
[22] = species: Rattus norvegicus; experiment: Inhibition of CPT1A activity in 48 hrs fasted rat; assay type: functional
[23] = species: Rattus norvegicus; experiment: Reduction in ketone bodies in 48 hrs fasted rat; assay type: functional; parameters: scale not given: the % may be the effect or the level left

Molecule `C=C1C(=O)O[C@H](CCCCCCCC)[C@H]1C(=O)O` has an IC50 [1] greater than 100000 nM, an IC50 [2] of 21.9 µM and an Activity [3] of 4.4%. The Activity [4] was 32.9%, the Activity [5] was 250% and the Activity [6] was 750%. For the same molecule, the Activity [7] was 20% and the Activity [8] was 20%.
Molecule `CCOC(=O)[C@@]1(CCCCCCOc2ccc(Cl)cc2)CO1` [ETOMOXIR] has an IC50 [1] of 340 nM, an IC50 [2] of 0.29 µM and an Activity [9] of 126%.
`C=CCC1(CC=C)C(=O)S[C@](C)(CCCCCCCC)C1=O` showed an Activity [10] of 150%, an Activity [11] of 150% and an Activity [12] of 140%. The EC50 [13] was 3 µM and the Activity [14] was 177%.
`CCCCCCCCCCCCCCOP(=O)([O-])O[C@H](CC(=O)O)C[N+](C)(C)C` showed an Activity [15] of 77%, an Activity [16] of 20% and an IC50 [17] of 62 µM. For the same molecule, the IC50 [18] was 17.4 µM, the IC50 [19] was 3000 nM and the IC50 [20] was 36 µM. It also gave a Ki [21] of 3.6 µM.
For `CCCCCCCCCCCCCC[C@]1(C(=O)OC)CO1` (racemic), the “inhibition (INH)” value [22] was 90% and the Activity [23] was 90%.
